Measured values from patent US20210254056A1, “IDENTIFICATION AND TARGETED MODULATION OF GENE SIGNALING NETWORKS” (CAMP4 THERAPEUTICS CORPORATION, priority 2017, published 2021).

Test system: hepatocytes
Test: RNA-seq of hepatocytes treated with Phase III failure compounds
Settings: hepatocytes
Experimental: RNA-seq was performed to determine the effects of the compounds on hepatocytes.
Significance was determined by the criteria of FPKM≥0.5, a log 2(fold-change)≥1, and a […].

## CCC(CC)[C@H](NC(C)=O)[C@@H]1[C@H](O)[C@@H](C(=O)O)C[C@H]1NC(=N)N.O.O.O [peramivir (trihydrate), peramivir]
Gene DOLK
  RNA-seq results: DOLK expression: 0.33
Gene DPM3
  RNA-seq results, DPM3 expression: −0.11
  RNA-seq results: DPM3 expression: 0.68
Gene DPYD
  RNA-seq results, DPYD expression: −0.21
  RNA-seq results: DPYD expression: −0.43
Gene DPYS
  RNA-seq results, DPYS expression: −0.01
  RNA-seq results: DPYS expression: −0.27
Gene EARS2
  RNA-seq results, EARS2 expression: 0.04
  RNA-seq results: EARS2 expression: −0.01
Gene EDA
  RNA-seq results, EDA expression: −0.03
  RNA-seq results: EDA expression: 0.3
Gene EHHADH
  RNA-seq results, EHHADH expression: −0.10
  RNA-seq results: EHHADH expression: −0.3
Gene ELAC2
  RNA-seq results, ELAC2 expression: −0.15
  RNA-seq results: ELAC2 expression: −0.13
Gene ENO3
  RNA-seq results, ENO3 expression: 0.30
  RNA-seq results: ENO3 expression: −0.12
Gene ENPP1
  RNA-seq results, ENPP1 expression: −0.28
  RNA-seq results: ENPP1 expression: −0.21
Gene EPG5
  RNA-seq results, EPG5 expression: 0.13
  RNA-seq results: EPG5 expression: 0
Gene EPHX1
  RNA-seq results, EPHX1 expression: −0.26
  RNA-seq results: EPHX1 expression: 0.16
Gene ERCC4
  RNA-seq results, ERCC4 expression: −0.23
  RNA-seq results: ERCC4 expression: −0.18
Gene ERCC6
  RNA-seq results, ERCC6 expression: 0.05
  RNA-seq results: ERCC6 expression: −0.09
Gene ETFB
  RNA-seq results, ETFB expression: 0.23
  RNA-seq results: ETFB expression: 0.14
Gene ETHE1
  RNA-seq results, ETHE1 expression: 0.31
  RNA-seq results: ETHE1 expression: 0.31
Gene F2
  RNA-seq results, F2 expression: 0.11
  RNA-seq results: F2 expression: 0.31
Gene F2RL1
  RNA-seq results, F2RL1 expression: −0.53
  RNA-seq results: F2RL1 expression: 0.01
Gene F5
  RNA-seq results, F5 expression: −0.08
  RNA-seq results: F5 expression: −0.44
Gene F9
  RNA-seq results, F9 expression: −0.53
  RNA-seq results: F9 expression: −0.17
Gene FABP1
  RNA-seq results, FABP1 expression: 0.73
  RNA-seq results: FABP1 expression: −0.05
Gene FADD
  RNA-seq results, FADD expression: −0.14
  RNA-seq results: FADD expression: 0.13
Gene FAM111A
  RNA-seq results, FAM111A expression: −0.08
  RNA-seq results: FAM111A expression: −0.05
Gene FAM111B
  RNA-seq results, FAM111B expression: 0.11
  RNA-seq results: FAM111B expression: −0.44
Gene FAN1
  RNA-seq results, FAN1 expression: −0.06
  RNA-seq results: FAN1 expression: −0.14
Gene FARS2
  RNA-seq results, FARS2 expression: −0.22
  RNA-seq results: FARS2 expression: −0.04
Gene FASLG
  RNA-seq results, FASLG expression: 1.15
  RNA-seq results: FASLG expression: −0.66
Gene FGA
  RNA-seq results, FGA expression: −0.25
  RNA-seq results: FGA expression: −0.37
Gene FGD1
  RNA-seq results, FGD1 expression: −0.25
  RNA-seq results: FGD1 expression: 0.14
Gene FGFR2
  RNA-seq results, FGFR2 expression: −0.13
  RNA-seq results: FGFR2 expression: −0.42
Gene FIG4
  RNA-seq results, FIG4 expression: −0.30
  RNA-seq results: FIG4 expression: 0.3
Gene FIS1
  RNA-seq results, FIS1 expression: 0.44
  RNA-seq results: FIS1 expression: 0.25
Gene FTCD
  RNA-seq results, FTCD expression: 0.58
  RNA-seq results: FTCD expression: 0.43
Gene FTH1
  RNA-seq results, FTH1 expression: −0.04
  RNA-seq results: FTH1 expression: 0.7
Gene FUCA1
  RNA-seq results, FUCA1 expression: −0.23
  RNA-seq results: FUCA1 expression: 0.07
Gene FXN
  RNA-seq results, FXN expression: −0.69
  RNA-seq results: FXN expression: 0.12
Gene G6PC3
  RNA-seq results, G6PC3 expression: 0.06
  RNA-seq results: G6PC3 expression: 0.29
Gene G6PC
  RNA-seq results, G6PC expression: 0.23
  RNA-seq results: G6PC expression: 0.01
Gene G6PD
  RNA-seq results, G6PD expression: 0.08
  RNA-seq results: G6PD expression: 0.59
Gene GALK1
  RNA-seq results, GALK1 expression: 0.18
  RNA-seq results: GALK1 expression: 0.34
Gene GALK2
  RNA-seq results, GALK2 expression: −0.13
  RNA-seq results: GALK2 expression: −0.11
Gene GALT
  RNA-seq results, GALT expression: 0.15
  RNA-seq results: GALT expression: 0.26
Gene GATA6
  RNA-seq results, GATA6 expression: −0.08
  RNA-seq results: GATA6 expression: −0.02
Gene GATM
  RNA-seq results, GATM expression: −0.37
  RNA-seq results: GATM expression: −0.37
Gene GBA
  RNA-seq results, GBA expression: −0.19
  RNA-seq results: GBA expression: 0.27
Gene GBE1
  RNA-seq results, GBE1 expression: −0.20
  RNA-seq results: GBE1 expression: −0.08
Gene GCH1
  RNA-seq results, GCH1 expression: −0.27
  RNA-seq results: GCH1 expression: −0.25
Gene GCKR
  RNA-seq results, GCKR expression: 0.29
  RNA-seq results: GCKR expression: 0.32
Gene GCLC
  RNA-seq results, GCLC expression: −0.18
  RNA-seq results: GCLC expression: −0.14
Gene GGCX
  RNA-seq results, GGCX expression: 0.10
  RNA-seq results: GGCX expression: −0.22
Gene GHR
  RNA-seq results, GHR expression: −0.27
  RNA-seq results: GHR expression: −0.6
Gene GJB2
  RNA-seq results, GJB2 expression: −0.37
  RNA-seq results: GJB2 expression: 0.1
Gene GLDC
  RNA-seq results, GLDC expression: 0.02
  RNA-seq results: GLDC expression: −0.33
Gene GLIS3
  RNA-seq results, GLIS3 expression: −0.13
  RNA-seq results: GLIS3 expression: −0.41
Gene GLS2
  RNA-seq results, GLS2 expression: −0.24
  RNA-seq results: GLS2 expression: −0.06
Gene GLYCTK
  RNA-seq results, GLYCTK expression: 0.32
  RNA-seq results: GLYCTK expression: 0.43
Gene GNE
  RNA-seq results, GNE expression: −0.21
  RNA-seq results: GNE expression: −0.11
Gene GNPTAB
  RNA-seq results, GNPTAB expression: −0.49
  RNA-seq results: GNPTAB expression: −0.13
Gene GOSH
  RNA-seq results, GOSH expression: −0.17
  RNA-seq results: GOSH expression: 0.44
Gene GPC3
  RNA-seq results, GPC3 expression: −0.45
  RNA-seq results: GPC3 expression: 0.06
